From patent publication US20240315297A1, “STEVIOL GLYSOCIDE SOLUBILITY ENHANCERS” (CARGILL, INCORPORATED, priority 2017, published 2024)

Legend:
[1] = Observation of samples for solubility/precipitation in water (Example 9); type: physicochemical; details: for time over which a soluble solution was promoted: 0.3% steviol glycoside mixture, 5:1 molar ratio of acid to steviol glycoside
[2] = type: physicochemical
From the text: The composition can optionally be expressed in terms of the concentration of one or more steviol glycoside(s). […] Clear solutions without precipitates are considered soluble. Unless indicated otherwise herein, the term “solubility” refers to “equilibrium solubility.”

[3] = sensory evaluation; cited from earlier work

Row | time over which a soluble solution was promoted [1] | equilibrium solubility [2] | instantaneous solubility [2] | SMILES | further results
1 | 3 days | – | – | O=C(O)c1cc(C(=O)O)c(C(=O)O)cc1C(=O)O [Pyromellitic acid] | –
2 | – | 0.08% | less than 0.08% | C=C1C[C@@]23CC[C@H]4[C@@](C)(CCC[C@@]4(C)C(=O)O[C@@H]4O[C@H](CO)[C@@H](O)[C@H](O)[C@H]4O[C@@H]4O[C@H](CO)[C@@H](O)[C@H](O)[C@H]4O)[C@@H]2CC[C@]1(O[C@@H]1O[C@H](CO)[C@@H](O)[C@H](O[C@@H]2O[C@H](CO)[C@@H](O)[C@H](O)[C@H]2O)[C@H]1O[C@@H]1O[C@H](CO)[C@@H](O)[C@H](O)[C@H]1O)C3 [Rebaudioside D, rebaudioside D] | times sweeter than sucrose [3]: 200-220 times
3 | – | about 0.2% | about 0.13% | C=C1C[C@@]23CC[C@H]4[C@@](C)(CCC[C@@]4(C)C(=O)O[C@@H]4O[C@H](CO)[C@@H](O)[C@H](O[C@@H]5O[C@H](CO)[C@@H](O)[C@H](O)[C@H]5O)[C@H]4O[C@@H]4O[C@H](CO)[C@@H](O)[C@H](O)[C@H]4O)[C@@H]2CC[C@]1(O[C@@H]1O[C@H](CO)[C@@H](O)[C@H](O[C@@H]2O[C@H](CO)[C@@H](O)[C@H](O)[C@H]2O)[C@H]1O[C@@H]1O[C@H](CO)[C@@H](O)[C@H](O)[C@H]1O)C3 [Rebaudioside M, rebaudioside M] | –

Continued, compound first:

Row | SMILES | time over which a soluble solution was promoted [1] | equilibrium solubility [2] | instantaneous solubility [2] | further results
4 | O=C(O)c1cc(O)c(O)c(O)c1 [Gallic acid] | – | – | – | colour imparted to the sample solutions ([1]; more apparent at higher concentrations, observed after about 3 days): brownish tinge
5 | O=C(O)C(O)c1ccccc1 (centres unmarked) [Mandelic acid] | 3 days | – | – | –
